Consider 9 molecules from patent US8372845B2, “Pyrazine derivatives as enac blockers” (Novartis AG, priority 2010, dated 2013).

Each structure is given as a SMILES string.

Series [1] can be described thus: Stability in human plasma. The class given is in vitro ADME. Particulars: pooled human plasma (lithium heparin), 1 μM compound, 37° C., 1 hour incubation. On the procedure: The stability of the compounds of the invention in human plasma may be measured as follows:
Stability in Human Plasma
Blood was taken from healthy volunteers in lithium heparin tubes and plasma was prepared by centrifugal separation of blood cells at 1500 g. Plasma from at least 3 individuals was pooled and used for compound stability determination.
Compounds were prepared in 100% DMSO at a concentration of 10 mM and serially diluted to a concentration of 100 μM. Incubations were performed at a final concentration of 1 μM and were initiated by addition of 3 μl of 100 μM compound stock solution into 297 μl plasma, pre-warmed in a water bath to 37° C., followed by brief vortex mixing. 50 μl aliquots of plasma were removed at 4 timepoints over a 1 hour incubation period and quenched immediately by protein precipitation achieved by addition of the aliquot of plasma to a pre-prepared 96 well plate containing 150 μl of acetonitrile containing an appropriate internal standard. Acetonitrile quenched samples were vortex mixed followed by centrifugation for 20 minutes at 1500 g to remove the precipitated proteins. Initial compound levels (at time=0 minutes) was established by spiking compound into pre-quenched plasma at the same concentration as used in the incubation. The supernatant was then removed, diluted 1:1 with water and analysed for compound remaining by liquid chromatography-tandem mass spectrometry (Waters Acquity HPLC, Applied Biosystems API4000). The plasma elimination rate constant of the compound was calculated by fitting the peak area ratio of compound:internal standard to an exponential decay function and the half life calculated by division of the natural log of 2 by the elimination rate constant (Microsoft Excel).

The target in series [2] is T1, epithelial sodium channel (ENaC) (Homo sapiens, UniProt P37088+P51168+P51170).
T1 construct: host or cells: primary Human Bronchial Epithelial cells (HBECs), differentiated at air-liquid interface
T1 sequence (P37088 1-669): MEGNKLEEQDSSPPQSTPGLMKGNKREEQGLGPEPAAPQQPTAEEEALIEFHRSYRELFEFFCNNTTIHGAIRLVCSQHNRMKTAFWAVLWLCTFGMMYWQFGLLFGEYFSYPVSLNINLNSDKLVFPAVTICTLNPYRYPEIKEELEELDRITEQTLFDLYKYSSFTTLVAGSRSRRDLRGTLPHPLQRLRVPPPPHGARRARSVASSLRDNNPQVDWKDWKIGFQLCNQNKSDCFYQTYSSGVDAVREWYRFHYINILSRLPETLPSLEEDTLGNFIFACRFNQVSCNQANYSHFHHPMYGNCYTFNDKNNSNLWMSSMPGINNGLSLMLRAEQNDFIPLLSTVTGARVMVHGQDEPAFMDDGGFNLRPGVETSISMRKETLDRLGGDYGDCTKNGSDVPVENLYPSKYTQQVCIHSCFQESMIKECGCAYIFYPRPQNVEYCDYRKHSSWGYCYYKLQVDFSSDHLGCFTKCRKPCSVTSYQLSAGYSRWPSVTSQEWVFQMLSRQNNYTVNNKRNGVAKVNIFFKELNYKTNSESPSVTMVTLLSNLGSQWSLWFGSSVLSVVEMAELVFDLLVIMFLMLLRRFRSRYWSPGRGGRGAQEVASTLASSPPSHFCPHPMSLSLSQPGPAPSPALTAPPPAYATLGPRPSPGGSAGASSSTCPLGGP
T1 sequence (P51168 1-640): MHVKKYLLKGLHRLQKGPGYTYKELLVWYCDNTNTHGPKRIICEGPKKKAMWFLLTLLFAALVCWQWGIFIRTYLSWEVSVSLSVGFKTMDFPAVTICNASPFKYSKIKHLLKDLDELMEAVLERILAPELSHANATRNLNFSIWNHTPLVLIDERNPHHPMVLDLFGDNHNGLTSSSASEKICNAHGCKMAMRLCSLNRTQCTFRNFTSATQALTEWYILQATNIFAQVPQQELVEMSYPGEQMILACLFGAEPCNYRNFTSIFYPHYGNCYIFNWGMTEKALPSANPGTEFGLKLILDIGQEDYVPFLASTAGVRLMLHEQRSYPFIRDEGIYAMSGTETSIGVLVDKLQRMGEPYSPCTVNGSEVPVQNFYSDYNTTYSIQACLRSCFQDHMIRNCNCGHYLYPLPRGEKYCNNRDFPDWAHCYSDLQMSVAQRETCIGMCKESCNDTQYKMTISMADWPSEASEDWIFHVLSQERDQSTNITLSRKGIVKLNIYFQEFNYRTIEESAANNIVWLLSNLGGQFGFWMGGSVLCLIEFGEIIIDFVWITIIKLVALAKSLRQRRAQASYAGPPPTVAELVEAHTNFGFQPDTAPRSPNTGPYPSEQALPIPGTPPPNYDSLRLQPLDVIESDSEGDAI
T1 sequence (P51170 1-649): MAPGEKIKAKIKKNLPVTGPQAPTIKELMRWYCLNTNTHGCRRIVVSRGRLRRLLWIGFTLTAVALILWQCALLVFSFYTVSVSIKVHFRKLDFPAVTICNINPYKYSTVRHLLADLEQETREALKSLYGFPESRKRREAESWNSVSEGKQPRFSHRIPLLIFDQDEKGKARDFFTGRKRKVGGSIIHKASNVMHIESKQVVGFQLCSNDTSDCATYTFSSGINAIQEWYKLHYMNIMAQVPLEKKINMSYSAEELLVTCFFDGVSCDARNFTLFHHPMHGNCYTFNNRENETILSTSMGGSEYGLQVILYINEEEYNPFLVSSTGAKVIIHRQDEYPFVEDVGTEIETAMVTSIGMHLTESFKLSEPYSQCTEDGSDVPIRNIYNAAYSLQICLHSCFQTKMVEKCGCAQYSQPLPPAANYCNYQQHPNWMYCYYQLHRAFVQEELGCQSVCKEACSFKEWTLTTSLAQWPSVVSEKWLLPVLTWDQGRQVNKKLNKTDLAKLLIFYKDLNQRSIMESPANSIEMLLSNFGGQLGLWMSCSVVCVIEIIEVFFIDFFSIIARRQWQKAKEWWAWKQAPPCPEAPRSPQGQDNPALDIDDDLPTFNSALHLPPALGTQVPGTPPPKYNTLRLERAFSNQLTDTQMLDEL
Description: Short circuit current (ISC) measurements in Human Bronchial Epithelial cells (HBEC-ENaC). Particulars: inhibition of amiloride-sensitive ISC, HBECs at air-liquid interface, Ussing chamber, apical addition. The class given is cell-based. On the procedure:
Human Bronchial Epithelial cells (HBECs) (Cambrex) were cultured under air-liquid interface conditions to provide a well differentiated mucociliary phenotype.
Medium was changed every 48 hours until cells were 90% confluent. […] Cells were maintained submerged for the first 7 days in culture, after which time they were exposed to an apical air interface for the remainder of the culture period. At this time, media was changed to DMEM:F12 media containing 2% v/v Ultroser G for the remainder of culture. Amphotericin B was removed from all media 3 feeds prior to use in the Ussing Chambers. Cells were used between days 7 and 21 after establishment of the apical-air interface. At all stages of culture, cells were maintained at 37° C. in 5% CO2 in an air incubator.
Short Circuit Current (ISC) Measurements
Snapwell inserts were mounted in Vertical Diffusion Chambers (Costar) and were bathed with continuously gassed Ringer solution (5% CO2 in O2; pH 7.4) maintained at 37° C. containing (in mM): 120 NaCl, 25 NaHCO3, 3.3 KH2PO4, 0.8 K2HPO4, 1.2 CaCl2, 1.2 MgCl2, and 10 glucose. The solution osmolarity was between 280 and 300 mOsmol/kg H2O for all physiological salt solutions used. Cells were voltage clamped to 0 mV (model EVC4000; WPI). RT was measured by applying a 1- or 2-mV pulse at 30-s intervals and calculating RT by Ohm's law. Data were recorded using a PowerLab workstation (ADInstruments).
Test compounds were prepared as a 10 mM stock solution in DMSO (95%). Serial 3-fold dilutions were freshly prepared in an appropriate vehicle (distilled H2O or Ringers solution). The initial concentration was added to the apical chamber as a 1000× concentrate in 5 μL, resulting in a final 1× concentration the 5 mL volume of the Ussing chamber. Subsequent additions of compound were added in a 3.3 μL volume of the 1000× serially diluted stock solution. At the completion of the concentration-response experiment, amiloride (10 μM) was added into the apical chamber to enable the total amiloride-sensitive current to be measured. An amiloride control IC50 was established at the start of each experiment.
Results are expressed as the mean % inhibition of the amiloride-sensitive ISC. […] Cell inserts were typically run in duplicate and the IC50 calculated on the mean % inhibition data.

In series [1], `Nc1nc(N)c(C(=O)/N=C2\NCC3(CCN(C(=O)CCc4ccc(OCC(=O)OCCN5CCCCC5=O)c(Cl)c4)CC3)N2)nc1Cl` [Example 4.1, [2-Chloro-4-(3-{2-[(E)-3,5-diamino-6-chloro-pyrazine-2-carbonylimino]-1,3,8-triaza-spiro[4.5]dec-8-yl}-3-oxo-propyl)-phenoxy]-acetic acid 2-(2-oxo-piperidin-1-yl)ethyl ester] had a half-life at 1 μM of 3 min. Moreover, in series [2], inhibition was half-maximal at 132 nM (IC50). On the same counts, the results for `Nc1nc(N)c(C(=O)/N=C2\NCC3(CCN(C(=O)c4cccc(S(=O)(=O)NCCC(=O)OCC(=O)OC5CCCCC5)c4)CC3)N2)nc1Cl` [Example 1.3, 3-(3-{2-[(E)-3,5-Diamino-6-chloro-pyrazine-2-carbonylimino]-1,3,8-triaza-spiro[4.5]decane-8-carbonyl}-benzenesulfonylamino)-propionic acid cyclohexyloxy carbonylmethyl ester] are 4 min and 3 nM. As to `Nc1nc(N)c(C(=O)/N=C2\NCC3(CCN(C(=O)CCc4ccc(OCC(=O)OCC(=O)OCc5ccccc5)cc4)CC3)N2)nc1Cl` [Example 2.2, [4-(3-{2-[(E)-3,5-Diamino-6-chloro-pyrazine-2-carbonylimino]-1,3,8-triaza-spiro[4.5]dec-8-yl}-3-oxo-propyl)-phenoxy]-acetic acid benzyloxycarbonylmethyl ester], the IC50 in series [2] turned out to be 12 nM. This lies in the double-digit nanomolar range. On to `CCCN(CCC)C(=O)COC(=O)C1(CNS(=O)(=O)c2cccc(C(=O)N3CCC4(CC3)CN/C(=N\C(=O)c3nc(Cl)c(N)nc3N)N4)c2)CCC1` [Example 5.0, 1-[(3-{2-[(E)-3,5-Diamino-6-chloro-pyrazine-2-carbonylimino]-1,3,8-triaza-spiro[4.5]decane-8-carbonyl}-benzenesulfonylamino)-methyl]-cyclobutanecarboxylic acid dipropylcarbamoylmethyl ester], for which the half-life at 1 μM in series [1] was found to be 5 min. In series [2], this molecule displayed a half-maximal inhibitory concentration (IC50) of 12 nM. In series [2], `CCN(CC)C(=O)COC(=O)COc1ccc(CCC(=O)N2CCC3(CC2)CN/C(=N\C(=O)c2nc(Cl)c(N)nc2N)N3)cc1` [Example 2.3, [4-(3-{2-[(E)-3,5-Diamino-6-chloro-pyrazine-2-carbonylimino]-1,3,8-triaza-spiro[4.5]dec-8-yl}-3-oxo-propyl)-phenoxy]-acetic acid diethylcarbamoylmethyl ester] came in with an IC50 of 89 nM. In series [2], `Nc1nc(N)c(C(=O)/N=C2\NCC3(CCN(C(=O)CCc4ccc(OCC(=O)OCC(=O)N5CCCCC5)cc4)CC3)N2)nc1Cl` [Example 2.4, [4-(3-{2-[(E)-3,5-Diamino-6-chloro-pyrazine-2-carbonylimino]-1,3,8-triaza-spiro[4.5]dec-8-yl}-3-oxo-propyl)-phenoxy]-acetic acid 2-oxo-2-piperidin-1-yl-ethyl ester] returned an IC50 of 110 nM. For the molecule `CCCN(CCC)C(=O)COC(=O)COc1ccc(CCC(=O)N2CCC3(CC2)CN/C(=N\C(=O)c2nc(Cl)c(N)nc2N)N3)cc1` [Example 2.0, [4-(3-{2-[(E)-3,5-Diamino-6-chloro-pyrazine-2-carbonylimino]-1,3,8-triaza-spiro[4.5]dec-8-yl}-3-oxo-propyl)-phenoxy]-acetic acid dipropylcarbamoylmethyl ester], the half-life at 1 μM in series [1] turned out to be 1 min. In series [2], this molecule came in with an IC50 of 32 nM. In turn, `CN(C)C(=O)COC(=O)COc1ccc(CCC(=O)N2CCC3(CC2)CN/C(=N\C(=O)c2nc(Cl)c(N)nc2N)N3)cc1` [Example 1.4, [4-(3-{2-[(E)-3,5-Diamino-6-chloro-pyrazine-2-carbonylimino]-1,3,8-triaza-spiro[4.5]dec-8-yl}-3-oxo-propyl)-phenoxy]-acetic acid dimethylcarbamoylmethyl ester] gave a half-maximal inhibitory concentration (IC50) in series [2] of 302 nM. `CN(CCO)C(=O)COC(=O)COc1ccc(CCC(=O)N2CCC3(CC2)CN/C(=N/C(=O)c2nc(Cl)c(N)nc2N)N3)cc1` [Example 1.1, [4-(3-{2-[(Z)-3,5-Diamino-6-chloro-pyrazine-2-carbonylimino]-1,3,8-triaza-spiro[4.5]dec-8-yl}-3-oxo-propyl)-phenoxy]-acetic acid [(2-hydroxy-ethyl)-methyl-carbamoyl]-methyl ester] had a half-inhibitory concentration (IC50) in series [2] of 419 nM. The IC50 values of the last two molecules are within 1.5-fold of each other.
